In brackets after ≈: the same amount, converted by molar mass. Like-named read-outs stand apart in the source and are kept apart here.
Legend:
[1] = Hygroscopicity (water absorption versus relative humidity); type: physicochemical
physchem = conditions: water
acetylcholine = assay: Microdialysis: extracellular acetylcholine in the brain of freely moving rats; type: in vivo, Sprague-Dawley rats; conditions: rat, subcutaneously 2.5-10 mg/kg
Experimental: The animals were administered 1-[2-(2,4-dimethylphenylsulfanyl)phenyl]-piparazine, HBr salt.
Male Sprague-Dawley rats, initially weighing 275-300 g, were used. The animals were housed under a 12-hr light/dark cycle under controlled conditions for regular in-door temperature (21±2° C.) and humidity (55±5%) with food and tap water available ad libitum.
Rats were anaesthetised with hypnorm/dormicum (2 ml/kg) and intracerebral guide cannulas (CMA/12) were stereotaxically implanted into the brain, aiming at positioning the dialysis probe tip in the ventral hippocampus (co-ordinates: 5.6 mm posterior to bregma, lateral −5.0 mm, 7.0 mm ventral to dura) or in the prefrontal cortex (co-ordinates: 3.2 mm anterior to bregma; lateral, 0.8 mm; 4.0 mm ventral to dura). […] The body temperature of the animals was monitored by rectal probe and maintained at 37° C. […]
The compound dissolved in 10% HPbetaCD and injected subcutaneously (2.5-10 mg/kg). Doses are expressed as mg salt/kg body weight. […]
Concentration of acetylcholine (ACh) in the dialysates was analysed by means of HPLC with electrochemical detection using a mobile phase consisting of 100 mM disodium hydrogenphosphate, 2.0 mM octane sulfonic acid, 0.5 mM tetramethyl-ammonium chloride and 0.005% MB (ESA), pH 8.0. […] The latter was detected electrochemical by using a platinum electrode (Analytical cell: ESA, model 5040). […]

Sprague-Dawley rats = assay: Contextual fear conditioning in rats; type: in vivo; conditions: for time spent freezing during the retention test: 24 h after acquisition
Text: The compound administered in the present experiment was 1-[2-(2,4-dimethylphenylsulfanyl)phenyl]piperazine HBr salt.
We have studied the effect of the compound on acquisition, consolidation and recall of contextual fear conditioning in rats. In the fear conditioning paradigm animals learn to associate a neutral environment (context, the training chamber, CS) with an aversive experience (an electrical foot-shock, US). During re-exposure to the training chamber, animals express a freezing behaviour, which is taken as a direct measure of the fear-related memory [Pavlov J. Biol. Sci., 15, 177-182, 1980]. […] Neurosci., 106, 274-285, 1992].
Adult male Sprague-Dawley rats (weighing 250-300 g at time of training) from Charles River Laboratories, housed two per cage under a 12 h light/dark cycle, were used. Food and water were available ad libitum. Rats were used 1 week after arrival. The compound was dissolved in 10% HPbetaCD and injected subcutaneously. The drug was administered in a volume of 2.5 ml/kg.
Training and testing were conducted in a soundproof chamber (30×20×40 cm) housed in an isolated room and connected to a ventilation system. Illumination was provided by a white light (60 Watt). The floor of the chamber consisted of a metal grid attached to an electric shock generator. Prior to training and testing, the chamber was cleaned with a 70% ethanol solution. A video camera allowed for behavioral observations and recording of the training session for off-line analysis.
During the acquisition animals were allowed to freely explore the novel environment for a 1 min habituation period, which co-terminated with one inescapable foot-shock (unconditioned stimulus, US) through the electrifiable grid floor. […] Animals remained in the conditioning chamber for another 60 s after the US. Freezing behaviour was scored during the first 58 s (pre-shock acquisition; experimenter blinded to groups) to determine baseline-freezing responses to the context. At the end of the acquisition animals were gently removed and placed into their home cages. After 24 h the same animals were reintroduced into the training context (fear conditioning chamber) and a 2 min retention test was performed. During this period no foot shocks were applied. Freezing behaviour was scored during the whole test period with the experimenter blinded to groups and presented as percent of total test period.

[2] = biological target: Rat serotonin transporter (Rattus norvegicus, UniProt P31652); assay: Rat serotonin transporter, blockade of 5-HT uptake; type: biochemical
Human 5-HT3A receptor = biological target: T1, Human 5-HT3A receptor (Homo sapiens, UniProt P46098); assay: Human 5-HT3A receptor functional assay (cloned into oocytes); type: cell-based; conditions: at higher concentration, read-out: ED50 (agonistic activity)
T1 sequence (P46098 24-478): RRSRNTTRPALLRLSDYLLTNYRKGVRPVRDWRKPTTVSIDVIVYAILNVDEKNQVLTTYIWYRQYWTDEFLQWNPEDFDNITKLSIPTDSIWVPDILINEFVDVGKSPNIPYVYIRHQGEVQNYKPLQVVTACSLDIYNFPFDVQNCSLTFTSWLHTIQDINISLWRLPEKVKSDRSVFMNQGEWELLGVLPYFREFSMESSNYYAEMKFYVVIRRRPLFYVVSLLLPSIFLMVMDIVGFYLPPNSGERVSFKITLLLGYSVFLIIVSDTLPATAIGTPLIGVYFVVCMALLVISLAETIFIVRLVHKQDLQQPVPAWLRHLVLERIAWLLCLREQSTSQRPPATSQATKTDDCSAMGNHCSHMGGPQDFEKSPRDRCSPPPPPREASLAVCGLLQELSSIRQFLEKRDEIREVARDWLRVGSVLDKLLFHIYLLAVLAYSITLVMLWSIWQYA
Text: As shown in example 1, the compounds of the present invention are potent inhibitors of the human serotonin transporter, i.e. they inhibit serotonin reuptake. Moreover, the compounds are potent antagonists at the mouse, rat, guinea pig and canine 5-HT3 receptor. […] Thus, at low concentrations compounds of the present invention display a marked antagonism at the human 5-HT3 receptor as observed on the 5-HT3 receptor from other species.

Rat serotonin transporter, sequence (P31652 whole entry): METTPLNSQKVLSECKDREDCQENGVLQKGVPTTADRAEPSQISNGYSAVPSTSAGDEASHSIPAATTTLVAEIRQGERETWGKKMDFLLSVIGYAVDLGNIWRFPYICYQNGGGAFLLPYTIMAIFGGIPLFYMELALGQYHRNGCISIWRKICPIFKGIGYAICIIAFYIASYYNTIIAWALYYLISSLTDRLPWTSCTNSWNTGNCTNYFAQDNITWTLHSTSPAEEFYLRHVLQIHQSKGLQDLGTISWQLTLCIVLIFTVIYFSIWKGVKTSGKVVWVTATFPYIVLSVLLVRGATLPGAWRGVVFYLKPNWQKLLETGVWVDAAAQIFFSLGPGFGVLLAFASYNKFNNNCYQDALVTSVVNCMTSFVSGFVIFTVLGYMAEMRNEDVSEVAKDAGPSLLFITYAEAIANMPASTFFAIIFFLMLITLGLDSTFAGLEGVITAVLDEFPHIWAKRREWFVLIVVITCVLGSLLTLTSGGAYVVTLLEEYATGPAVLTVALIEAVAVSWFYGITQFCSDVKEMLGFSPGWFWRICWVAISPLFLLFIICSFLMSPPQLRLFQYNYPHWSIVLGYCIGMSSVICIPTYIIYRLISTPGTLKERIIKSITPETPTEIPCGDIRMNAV

Question: Which results are given for `Cc1ccc(Sc2ccccc2N2CCNCC2)c(C)c1.Cl` [hydrochloride monohydrate, 1-[2-(2,4-Dimethylphenylsulfanyl)-phenyl]piperazine HCl]?
Answer: hygroscopicity [1]: does not absorb further amount of water; solubility (physchem): ~2000 µg/mL

Question: For `Cc1ccc(Sc2ccccc2N2CCNCC2)c(C)c1` [crystalline base, 1-[2-(2,4-Dimethylphenylsulfanyl)-phenyl]piperazine], which “hygroscopicity” value [1] is on record?
Answer: The value was “not hygroscopic”.

Question: What about the solubility in water (Solubility in water) of the same compound?
Answer: The solubility in water was 100 µg/mL (≈ 335 µM).

Question: Which “water absorbed at 30% RH” value ([1]; 30% RH at room temperature) does the source give for `Br.Cc1ccc(Sc2ccccc2N2CCNCC2)c(C)c1` [gamma form of the hydrobromide, 1-[2-(2,4-Dimethylphenylsulfanyl)-phenyl]piperazine hydrobromide] here?
Answer: Its value is “about 2%”.

Question: Which results are given for `CS(=O)(=O)O.Cc1ccc(Sc2ccccc2N2CCNCC2)c(C)c1` [mesylate, 1-[2-(2,4-Dimethylphenylsulfanyl)-phenyl]piperazine mesylate]?
Answer: hygroscopicity [1]: hygroscopic; solubility (physchem): > 45000 µg/mL

Question: For `Cc1ccc(Sc2ccccc2N2CCNCC2)c(C)c1.O=P(O)(O)O` [phosphate, 1-[2-(2,4-Dimethylphenylsulfanyl)-phenyl]piperazine phosphate], which solubility (physchem) is on record?
Answer: Its solubility is ~1000 µg/mL.

Question: With `Cc1ccc(Sc2ccccc2N2CCNCC2)c(C)c1.O=[N+]([O-])O` [nitrate, 1-[2-(2,4-Dimethylphenylsulfanyl)-phenyl]piperazine nitrate] as the compound, how does the solubility (physchem) read?
Answer: Its solubility is ~800 µg/mL.

Question: For `Br.Cc1ccc(Sc2ccccc2N2CCNCC2)c(C)c1` [1-[2-(2,4-dimethylphenylsulfanyl)phenyl]piperazine HBr salt], which “extra-cellular levels of ACh in prefrontal cortex” value (acetylcholine; FIG. 19a) is on record?
Answer: Its value is “significantly increased”.

Question: What about the “extra-cellular levels of ACh in ventral hippocampus” value (acetylcholine; FIG. 19b) of the same compound?
Answer: The value was “significantly increased”.

Question: And the “time spent freezing during the retention test” value (Sprague-Dawley rats; 5 mg/kg s.c. 1 h prior to acquisition)?
Answer: Its value is 39.24±13.76%.

Question: And the “freezing behaviour during the memory test” value (Sprague-Dawley rats; 5 mg/kg s.c. 1 h prior to the retention test, p<0.05)?
Answer: Its value is 12.86±3.57%.

Question: What about the “time spent freezing during the retention test” value (Sprague-Dawley rats; 5 mg/kg s.c. after the acquisition session, p<0.05) of the same compound?
Answer: Its value is 45.58±4.50%.

Question: And the “time spent freezing during the retention test” value (Sprague-Dawley rats; 10 mg/kg s.c. 1 h prior to acquisition, p<0.01)?
Answer: The value was 52.15±5.68%.

Question: What about the “contextual memory” value (Sprague-Dawley rats; rats) of the same compound?
Answer: Its value is “enhances contextual memory”.

Question: And the “baseline freezing behaviour before the foot shock” value (Sprague-Dawley rats; rats, 1, 5 and 10 mg/kg s.c. 1 h prior to acquisition)?
Answer: Its value is “does not affect”.

Question: With `Cc1ccc(Sc2ccccc2N2CCNCC2)c(C)c1.O=C(O)/C=C\C(=O)O` [maleate, 1-[2-(2,4-Dimethylphenylsulfanyl)-phenyl]piperazine Maleate] as the compound, how does the solubility (physchem) read?
Answer: Its solubility is ~1000 µg/mL.

Question: For `Cc1ccc(Sc2ccccc2N2CCNCC2)c(C)c1.O=S(=O)(O)O` [sulphate, 1-[2-(2,4-Dimethylphenylsulfanyl)-phenyl]piperazine sulphate], which solubility (physchem) is on record?
Answer: Its solubility is ~100 µg/mL.

Question: For `Br.Cc1ccc(Sc2ccccc2N2CCNCC2)c(C)c1` [hemi hydrate of the hydrobromide], which water content ([1]; room temperature and 95% RH) is on record?
Answer: Its water content is “about 3.7%”.

Question: Which solubility (physchem) does the source give for `Cc1ccc(Sc2ccccc2N2CCNCC2)c(C)c1.O=C(O)/C=C/C(=O)O` [fumarate, 1-[2-(2,4-Dimethyl-phenylsulfanyl)-phenyl]-piperazine fumarate] here?
Answer: The solubility was 400 µg/mL.

Question: For `Br.CCOC(C)=O.Cc1ccc(Sc2ccccc2N2CCNCC2)c(C)c1` [ethyl acetate solvate, 1-[2-(2,4-Dimethylphenylsulfanyl)-phenyl]piperazine HBr EtOAc solvate], which “hygroscopicity” value [1] is on record?
Answer: Its value is “hygroscopic”.

Question: Which results are given for `Cc1ccc(Sc2ccccc2N2CCNCC2)c(C)c1` [compound I, 1-[2-(2,4-dimethylphenylsulfanyl)-phenyl]piperazine]?
Answer: IC50 [2]: 0.0053 µM; EC50 (Human 5-HT3A receptor): 2.1 µM

Question: With `Cc1ccc(Sc2ccccc2N2CCNCC2)c(C)c1.O=C(O)C(O)C(O)C(=O)O` [L-(+)-tartrate, 1-[2-(2,4-Dimethylphenylsulfanyl)-phenyl]piperazine (+)-tartaric acid] as the compound, how does the solubility (physchem) read?
Answer: Its solubility is ~400 µg/mL.

Question: For `Br.Cc1ccc(Sc2ccccc2N2CCNCC2)c(C)c1` [beta form of the hydrobromide, 1-[2-(2,4-Dimethylphenylsulfanyl)-phenyl]piperazine hydrobromide], which solubility in water (Solubility in water; hydrobromide) is on record?
Answer: The solubility in water was 1200 µg/mL.
